In patent US20240173317A1, “METHODS FOR TREATING PROGRESSIVE FAMILIAL INTRAHEPATIC CHOLESTASIS” (MIRUM PHARMACEUTICALS, INC., priority 2022, published 2024):

How the values were obtained:
Type in all cases: in vivo, human
[1] = test system: subjects with PFIC; test: Total serum bile acid (sBA) level, MARCH-PFIC Phase 3 study; conditions: for percentage of sBA response (sBA responders): Week 18 to Week 26
Description: Serum bile acids and other cholestasis biomarkers. Blood samples were collected as described in Table 1 to measure levels of cholestasis biomarkers including total sBA, sBA subspecies, C4, FGF-19, and autotaxin as well as liver related parameters. Subjects were encouraged to fast at least 6 hours prior to collection (water intake was permitted if necessary but not recommended). Total sBA and targeted bile acid subspecies were quantified with liquid chromatography mass spectrometry (LC-MS) methodology for exploratory assessments. In addition, screening total sBA will be assessed with an enzymatic assay for inclusion criteria evaluation. C4, a key intermediate in the pathway for bile acid synthesis from cholesterol, will be determined by a validated LC-MS/MS method. The secondary efficacy endpoints are defined as Mean change in total serum bile acid (sBA) level between baseline and average of Weeks 18, 22, and 26 (FIGS. 11-12); 2) Percentage of ItchRO(Obs) responders from Week 15 to Week 26 (FIGS. 13A and 14A); 3) Percentage of sBA responders from Week 18 to Week 26 (FIGS. 13B and 14B). Pruritus responders are defined as a subject having a 4-week average morning ItchRO (Obs) severity change from baseline of […] OR an average severity score of ≤1.0. For the purpose of determining response, the average severity score from the three 4-week periods (weeks 15-18, 19-22 and 23-26) are used. A subject is defined as an ItchRO non-responder if the 4-week average baseline score is missing OR all three 4-week average (post-baseline) scores are missing. sBA responders are defined as a subject having an average sBA level of <102 μmon (applies only if baseline sBA was ≥102 μmon) OR a ≤−75% average percent change from baseline. For the purpose of determining response, the average sBA value from Weeks 18, 22 and 26 values are used. A subject is defined as an sBA non-responder if the baseline sBA value is missing OR sBA values are missing at all 3 time points (i.e., Weeks 18, 22, and 26). p-values comparing maralixibat to placebo treatment groups are calculated using Barnard's exact test.

[2] = Height and weight Z-score, MARCH-PFIC Phase 3 study; conditions: BSEP deficiency group and PFIC group vs placebo
[3] = test system: participants with ALGS; test: TEAEs in participants with ALGS aged 16 years and older
Text: The efficacy and safety of MRX in participants with ALGS aged ≥16 years transitioning to adult care and participant aged ≥16 years who initiate MRX treatment were studied (FIG. 30). The median (min, max) duration of therapy for participants who initiated MRX at <16 years of age was 4.1 years (1.5, 5.9), with the oldest patient taking MRX (Table 13). Three participants began MRX at ≥16 years of age and were followed for a median of 3.8 years.

[4] = All PFIC cohort, average of Weeks 18, 22, 26, FIG. 11B
[5] = BSEP deficiency cohort, average of Weeks 18, 22, 26, FIG. 11A
[6] = ALGS, aged <16 y at MRX initiation (n = 11), After 16 y
[7] = ALGS, aged <16 y at MRX initiation (n = 11), Before 16 y
[8] = ALGS, aged >16 y at MRX initiation (n = 3)

CCCCC1(CCCC)CS(=O)(=O)c2ccc(N(C)C)cc2[C@@H](c2ccc(OCc3ccc(C[N+]45CCN(CC4)CC5)cc3)cc2)[C@H]1O [maralixibat, 1-(4-((4-((4R,5R)-3,3-dibutyl-7-(dimethylamino)-4-hydroxy-1,1-dioxido-2,3,4,5-tetrahydrobenzo[b]thiepin-5-yl)phenoxy)methyl)benzyl)-1,4-diazabicyclo[2.2.2]octan-1-ium]
reduction of sBA levels (mean change from baseline) [1, 4]: over 150 μmon
sBA difference from placebo [1, 4]: 160.403 μmon
percentage of sBA response (sBA responders) ([1]; BSEP deficiency cohort, FIG. 13B): 35.7%
reduction of sBA levels (mean change from baseline) [1, 5]: ~200 µmol/L
sBA difference from placebo [1, 5]: 186.723 µmol/L
improvements in serum bile acid levels ([1]; FIC1, MDR3, TJP2, MYO5B cohorts, FIG. 34A-B): Significant improvements
reduction of sBA levels (mean change from baseline) ([1]; FIC1 cohort, FIG. 12A): ~100 µmol/L
sBA difference from placebo ([1]; FIC1 cohort, FIG. 12A): 126.382 µmol/L
percentage of sBA response (sBA responders) ([1]; FIG. 14B, sentence prints BSEP deficiency cohort): 45.5%
reduction of sBA levels (mean change from baseline) ([1]; MDR3 cohort, FIG. 12B): 150 μmon
sBA difference from placebo ([1]; MDR3 cohort, FIG. 12B): 135.089 μmon
sBA levels lower at each time point (change from baseline over time) ([1]; Week 2 to Week 26, BSEP deficiency group, PFIC group, all study participants, FIG. 15A-C): more than 100 μmon
improvements in serum bile acid levels ([1]; full-study population, FIG. 35B): statistically significant and clinically meaningful improvements
improvements in serum bile acid levels ([1]; patients with no-variant found, FIG. 35D): demonstrated improvements
change of participant height Z-score over time ([2]; FIG. 24A-C): overall positive trend for increase
change of participant weight Z-score over time ([2]; FIG. 25A-C): gained significantly more weight over time than placebo participants
tolerability ([3]; ALGS participants aged 16 years and older): generally well tolerated
Any TEAEs, % [3, 6]: (63.6) %
Gastrointestinal TEAEs: Abdominal pain, % [3, 6]: (18.2) %
Gastrointestinal TEAEs: Diarrhoea, % [3, 6]: (9.1) %
SAEs, % [3, 6]: (9.1) %
TEAEs > grade 3, % [3, 6]: (9.1) %
Treatment-related AEs, % [3, 6]: (18.2) %
Any TEAEs, % [3, 7]: (100) %
Gastrointestinal TEAEs: Abdominal pain, % [3, 7]: (45.5) %
Gastrointestinal TEAEs: Diarrhoea, % [3, 7]: (54.5) %
SAEs, % [3, 7]: (18.2) %
TEAEs > grade 3, % [3, 7]: (9.1) %
Treatment-related AEs, % [3, 7]: (81.8) %
Any TEAEs, % [3, 8]: (100) %
Gastrointestinal TEAEs: Diarrhoea, % [3, 8]: (33.3) %
TEAEs > grade 3, % [3, 8]: (33.3) %
Treatment-related AEs ≥ grade 3, % [3, 8]: (33.3) %
Treatment-related AEs, % [3, 8]: (66.7) %
